Reference: ChEMBL document CHEMBL1157539, “Thousands of chemical starting points for antimalarial lead identification” (Nature, 2010)
Where “and” joins values, the source holds several entries; their conditions need not be identical. Identical values can stand only once.

Test system: Plasmodium falciparum
Experiment: GSK_TCMDC: Inhibition of Plasmodium falciparum 3D7 in whole erythrocytes, using parasite LDH activity as an index of growth.
Assay type: functional, organism-based
Conditions: not given

Compound | XC50
C[C@H](CNc1ccnc(Nc2ccc3[nH]c(=O)[nH]c3c2)n1)c1ccccc1 | 700 nM
CSc1nccc(-c2ccc(S(=O)(=O)NC3CCC(CN4CCC(c5c[nH]c6ccccc56)CC4)CC3)s2)n1 (stereo unspecified) | 811 nM and 254 nM

Same assay, conditions: Plasmodium falciparum, 3D7

Compound | XC50 [nM]
O=[N+]([O-])c1ccc(-n2nc(Cc3ccccc3)n(Cc3cccc(F)c3)c2=S)c(C(F)(F)F)c1 | 769
COc1ccc(CNCc2cccc(-c3ccc(-c4nc5cccc(C)c5[nH]4)cc3)c2)cc1 | 237
C[C@H](Nc1c(Nc2ccc3[nH]ccc3c2)c(=O)c1=O)C1CCCCC1 | 213
CN(CC(=O)Nc1ccc(F)cc1)C(=O)c1ccc(-c2ccc(F)cc2)o1 | 934
COc1cc2c(cc1OCCN1CCC(N3CCCCC3)CC1)N(C(=O)/C=C/c1ccccc1Cl)CC2 | 280
S=C(NCCc1ccc(Cl)cc1)N1CCC(CN2CCC(c3c[nH]c4ccccc34)CC2)CC1 | 1000
CCOc1ccc2c(=NN=Cc3ccccn3)cc(C)[nH]c2c1 | 862
CON(C)C(=O)[C@@H](CCCCNC(=O)OCc1ccccc1)NC(=O)OC(C)(C)C | 195
O=C(NCCc1ccccc1)N(Cc1ccc(-c2cccc(CN3CCNCC3)c2)cc1)C1CCN(Cc2ccccc2)CC1 | 1360
C#CCOc1ccc(N2C(N)=NC(N)=NC2(C)C)cc1 | 65.8
CN1CCC(Oc2ccc(CN3CC[C@H](NC(=O)c4ccc(F)c(F)c4)C3)c3ccccc23)C1 (stereo partly specified) | 1080
Nc1cccc(CNCc2ccc(-c3cccc(-c4nc5cc(F)ccc5[nH]4)c3)cc2)c1 | 213
CCc1cn2c3c(cc(C(=O)N[C@@H](Cc4ccccc4)[C@H](O)CNC4CCCCC4)cc13)N(CC)S(=O)(=O)CC2 | 31.4
Clc1ccc(-c2nc3cc(-c4ccc5nc(-c6ccc(Cl)cc6)[nH]c5c4)ccc3[nH]2)cc1 | 241
COC(=O)CCn1c(C2CCN(CC3CCC(NC(=O)/C=C/c4ccc(Cl)c(Cl)c4)CC3)CC2)nc2ccccc21 (stereo unspecified) | 951
Cc1ccccc1NC(=S)NC1CCN(CCCCCNC(=O)/C=C/c2ccc(Cl)c(Cl)c2)CC1 | 795
Cc1ccc(NC(=O)c2ccc(CN3CCCN(Cc4cccc(C#N)c4)CC3)cc2)cc1F | 592
CCNc1cc(C)nc(Nc2ccc(F)cc2)n1 | 798
CCCc1cc(Cc2cnc(N)nc2N)cc(CCC)c1O | 277
O=C(NCC1CCC(CNCCCc2ccccc2)CC1)c1cc(Cl)cc(Cl)c1 (stereo unspecified) | 846
C=CC[C@H](NC(=O)c1ccc(NS(=O)(=O)c2ccc3nc(N)[nH]c(=O)c3c2)cc1)C(=O)OCCCC | 154
Cc1n[nH]c2cc(F)c(-c3cc(OC[C@@H](N)Cc4ccccc4)cnc3-c3ccoc3)cc12 | 1040
CC(C)Oc1cc(-c2ccc(S(C)(=O)=O)cc2)nc(N(Cc2cccc(F)c2F)Cc2cccc(F)c2F)n1 | 121
CC(C)NC(=O)Cn1cc(C2CCN(CC3CCN(C(=O)/C=C/c4ccc(Cl)c(Cl)c4)CC3)CC2)c2ccccc21 | 1030

Compound | XC50 [nM]
CSc1ccc(C[C@@H](C)NC[C@H](O)c2cccc(Cl)c2)cc1 | 940
O=C(C=Cc1ccc(Cl)c(Cl)c1)NCCCCCN1CCC(CCCNC(=O)C2CC2c2ccccc2)CC1 (stereo unspecified) | 765
FC(F)(F)c1cccc(N2CCC(CN3CCC(c4c[nH]c5ccccc45)CC3)CC2)n1 | 980
O=C(/C=C/c1ccc(Cl)c(Cl)c1)NCCCCCN1CCC(c2n[nH]c(-c3ccccc3)c2Br)CC1 | 723
COc1cc(Nc2ccnc3ccc(C(F)(F)F)cc23)ccc1OCCCc1ccccc1 | 765
CCCCCCn1ccc2c3c(N)nc(N)nc3ccc21 | 149
Cc1cccc2nc(-c3ccc(-c4ccc(NC(=O)C5CCN(C)CC5)cc4)cc3)[nH]c12 | 748
Cc1nc(C)c(-c2ccc(Oc3cc(Cl)cc(Cl)c3)cc2)c(O)c1Cl | 524
CCN(CC)CCOc1ccc(C(O)(C#CC(O)(c2ccc(C)cc2)c2ccc(OCCN(CC)CC)cc2)c2ccc(C)cc2)cc1 (stereo unspecified) | 903
CC[C@H]1CN2CC[C@H]1C[C@H]2[C@H](O)c1cc(-c2cccc(F)c2)nc2ccc(OC)cc12 | 58.2
O=C(/C=C/c1ccc(Cl)c(Cl)c1)NCCCCCN1CCC(CCNC(=O)/C=C/c2cc(C(F)(F)F)ccc2F)CC1 | 765
CN1CCN(Cc2ccc(-c3ccc4c(Nc5ccc(Cl)cc5F)ccnc4c3)o2)CC1 | 155
CN(Cc1ccccc1)C1CCCN(c2cc(NC(=O)c3ccc(F)cc3)ccn2)C1 (stereo unspecified) | 988
Cc1cccc2nc(-c3cccc(-c4ccc(CN5CCCC5CN)cc4)c3)[nH]c12 (stereo unspecified) | 760
O=C(Cn1c(SCc2cccc(F)c2F)cc(=O)c2ccccc21)N(Cc1ccc(-c2ccc(C(F)(F)F)cc2)cc1)C1CCN(CCO)CC1 | 1250
CN1CCCN(c2ccnc3cc4c(cc23)N(C(=O)c2ccc(Cl)cc2Cl)CC4)CC1 | 812
CC(C)C[C@H](NC(=O)[C@H](Cc1ccccc1)NC(=O)CCN1C(=O)COc2ccc(C(=O)O)cc21)C(=O)NC(CC1CCCCC1)C(O)CC(=O)NCCCn1ccnc1 (stereo partly specified) | 970
COCc1ccc(CN2CCC(C(=O)Nc3ccc(-c4nc5ccccc5[nH]4)cc3)CC2)o1 | 853
O=c1cc(NCCCNC2CCCc3c2cc(Cl)c(Cl)c3Cl)[nH]c2ccccc12 (stereo unspecified) | 276
COc1ccc(-c2ccc(CNC(=O)c3ccc(Cl)cc3)c(F)c2)cc1CN1CCCN(C)CC1 | 705
COc1c(CN2CCOCC2)cccc1-c1cc2c(-c3ccc(C(=O)O)c(C(C)C)c3)ccnc2[nH]1 | 742
Nc1nc(N)c2c(Sc3ccccc3)cccc2n1 | 645
c1ccc(OCCCCN2CCCCC2)cc1 | 537
CCOC(=O)N1CCN(CCCNc2c3ccc(Cl)cc3nc3ccc(OC)cc23)CC1 | 104

Compound | XC50 [nM]
CC(C)c1cc(N)c2cc(NC(=O)COCC(=O)Nc3ccc4nc(C(C)C)cc(N)c4c3)ccc2n1 | 216
O=C(N[C@@H](CC1CCCCC1)C(=O)NC1CC1)c1ccc(O)c(-c2cccc(C(F)(F)F)c2)c1 | 773
COc1ccc(Nc2cc(C)c3cc(NC(=O)c4ccncc4)ccc3n2)cc1 | 908
O=C(/C=C/c1ccc(Cl)c(Cl)c1)NCCCCCN1CCC(NC(=S)Nc2ccc(Cl)cc2Cl)CC1 | 738
Cc1nc(-c2nc(NCCc3cnccn3)ncc2-c2ccsc2)sc1C | 881
COc1ccc(S(=O)(=O)N2CCOCC2)cc1NC(=O)c1cc2ccccc2o1 | 795
O=C(CC1NC(=O)c2ccccc21)Nc1ccc(-c2ccc(-c3nc4cc(C(F)(F)F)ccc4[nH]3)cc2)cc1 (stereo unspecified) | 470
COc1cc2c(cc1S(=O)(=O)c1ccc(NC(=O)Nc3ccc(F)cc3)cc1)CCN(C)CC2 | 473
COCCN1CCC(CN(C)CC(C)(C)c2nc(-c3ccc(Cl)c(O)c3)c(-c3ccncc3)[nH]2)CC1 | 1030
Cc1nc2ccccc2n1C1CC2CCC(C1)N2CCCC1(c2ccccc2)CCN(C(=O)OCc2ccccc2)CC1 (stereo unspecified) | 998
O=C(/C=C/c1ccc(Cl)c(Cl)c1)NCCCCCN1CCC(C(=O)Nc2cccc(Cl)c2)CC1 | 681
O=C(COc1ccc(Cl)c(Cl)c1)NCCCCCN1CCCN(C(=O)Nc2ccc(Cl)c(Cl)c2)CC1 | 1730
CN(C)Cc1c(O)ccc2[nH]c(-c3cccc(F)c3)nc12 | 1000
Cc1cccc2nc(-c3ccc(-c4ccc(CN5CCCC5CN)cc4)cc3)[nH]c12 (stereo unspecified) | 815
CN(C)CCOc1ccc(/C(=C(/CCCn2ccnc2)c2ccccc2)c2ccc(O)cc2)cc1 | 772
CC[C@H](NC(=O)c1c(CCCN2CCN(c3ccccc3)CC2)c(-c2ccccc2)nc2cc(O)ccc12)c1ccccc1 | 780
CN(C)CCOc1ccc(-c2cc(-c3ccncc3)c(-c3ccc(Cl)c(O)c3)[nH]2)cc1 | 224
CN(C)C(=O)c1ccc(CN(Cc2ccc(OC(C)(C)C)cc2)Cc2ccc3c(c2)OCCO3)cc1 | 829
O=S(=O)(NCCCN1CCOCC1)c1ccc2nccc(Nc3ccc(Oc4ccccc4)cc3)c2c1 | 855
CC(C)C1=NC(=O)c2cc([N+](=O)[O-])ccc2CN1 | 149
c1ccc(CNCc2cccc(-c3csc(-c4nc5ccccc5[nH]4)c3)c2)cc1 | 456
COc1ccc2nc(N3CCNCC3)nc(NCCCc3ccccc3)c2c1 | 1000
CC(C)C1=CC(=NOS(=O)(=O)c2ccccc2)C=C(C(C)C)C1=O | 712
[O-][S+]1c2ccccc2Sc2ccccc21 | 168

Compound | XC50 [nM]
O=C(Nc1ccc(Cn2ncc(N3CCCNCC3)c(Cl)c2=O)cc1)Nc1ccc(SC(F)(F)F)cc1 | 529
c1ccc(CN2CCC(NCc3cccc(-c4cncc5ccccc45)c3)CC2)cc1 | 1360
COc1ccc(CCNCCCCCCNCCc2ccc(Cl)c(Cl)c2)cc1OC | 926
CCN1CCC(N(Cc2ccc(-c3ccc(C(F)(F)F)cc3)cc2)C(=O)Cn2c(SCc3ccc(F)cc3)nc(=O)c3c2CCC3)CC1 | 991
N=C(N)CCN(Cc1ccccc1)c1ccc(Cl)cc1 | 257
CC(C)c1sc(N2CCN(C)CC2)nc1C(=O)NCCc1ccc(Cl)c(Cl)c1 | 1050
CC(=O)c1ccc(NC(=O)Nc2ccc3nccc(N4CCN(C)CC4)c3c2)cc1 | 432
N=C(N)NC(=O)Nc1ccc(Cl)c(Cl)c1 | 1040
CC(=O)Nc1nc(C(=O)Nc2cccc(-c3ccc(-c4nc5cccc(C)c5[nH]4)s3)c2)cs1 | 222
Cc1ccc(C2(CN3CCC(NC(=O)c4cc[nH]n4)CC3)CCCCC2)cc1 | 225
CCCNC(=O)c1cncc(-c2ccc(CNC3Cc4ccccc4C3)cc2)c1 | 848
COc1ccccc1-c1[nH]c2ccccc2c1CN1CCC(c2c(C)cccc2C)CC1 | 918
Cc1[nH]cc(Br)c(=O)c1-c1ccc(Oc2ccccc2)cc1 | 678
CN1CCCN(Cc2cccc(-c3cccc(NC(=O)c4ccc(C#N)cc4)c3)c2)CC1 | 1140
O=C(Nc1cccc(CN2CCCN(Cc3ccccc3)CC2)c1)c1ccc(-c2ccccc2)cc1 | 1300
CCCCC(=O)NC(c1cccs1)c1cc(Cl)c2cccnc2c1O (stereo unspecified) | 380
Cc1csc2nc(-c3ccccn3)nc(Nc3ccncn3)c12 | 786
CCCCCN1CCCC(NS(=O)(=O)c2ccc(C(=O)Nc3cccc(C(F)(F)F)c3)cc2)C1 (stereo unspecified) | 795
O=C(/C=C/c1ccc(Cl)c(Cl)c1)NCCCCCN1CCC(NC(=O)NCCc2ccccc2)CC1 | 722
COc1ccc(-c2nc(NC(=O)Cc3ccc4c(c3)OCCO4)sc2C)cc1 | 245
Cc1cc(F)ccc1-c1nc(NCCCNCCc2ccccc2)nc2c1ccc(=O)n2-c1c(F)cccc1F | 186
COc1ccc(NC(=O)c2ccc(-c3ccc(-c4cccnc4)cc3)c(C)c2)cc1OCCN(C)C | 201
